Test results taken from paper PMC6002064, “Validated UPLC-MS/MS method for the quantification of dasatinib in plasma: Application to pharmacokinetic interaction studies with nutraceuticals in Wistar rats” (PLoS ONE, 2018).
Values belong to the compound of their own block, whether it stands above or below them.

Experiments:
[1] = parameters: method as in PMID 28640225; conditions: rats; cited from earlier work
[2] = Pharmacokinetic interaction study of oral DAS with nutraceuticals in acetic acid-induced UC Wistar rats (UPLC-MS/MS of plasma); assay type: in vivo; conditions: DAS 25 mg/kg oral
Protocol: Calibration standards, QC samples, as well as blank plasma samples were centrifugated at 6000 rpm for 5 min. Following the separation of the methanolic supernatants, the residues of individual samples were separately washed with 0.5 mL volumes of methanol. The combined supernatant and washing of each sample were cleaned-up by passing onto STRATA® C 18-E (200 mg, 3 mL) SPE cartridges, previously preconditioned with 3.0 mL methanol followed by 3.0 mL ultrapure water. The retained drugs were eluted from each sample using separate volumes of 0.5 mL methanol. Following the evaporation of the eluted methanolic solutions to dryness under nitrogen, the residue was reconstituted in 0.5 mL acetonitrile. Finally, UPLC–MS/MS analysis of the reconstituted samples was performed by injecting 5 μL volumes of each sample under the operating conditions.
Wistar healthy male rats weighing 250 ± 30 g were provided by the animal house, Women Student-Medical studies & Sciences Sections, College of Pharmacy, King Saud University, Riyadh, Saudi Arabia. The rats were placed in cages kept in a well-ventilated room and subjected to a regular 12 h day–night cycle at a relative humidity of 40–60% and average temperature of 24–27°C. All the rats could access the water freely while diet was prohibited for 12 h before drug administration. The rats were acclimatized for 7 days to laboratory conditions before conducting the experiment. Seven groups of five rats each were involved in the study. For all rats, UC was induced by oral daily administration of 1 mL volumes of 5% glacial acetic acid in water for three successive days. DAS suspension was prepared by triturating 125 mg of DAS with 5 mL aqueous methyl cellulose (0.5%, w/v) to prepare DAS suspension of 25 mg/mL, given to all groups with the exception of group V where olive oil was used for the suspension preparation. Curcumin preparations (50 mg/mL) were prepared by suspending the content of one capsule of either Curcumin 95 500 mg or Super Bio-Curcumin 400 mg in 10 mL or 8 mL volumes of water, respectively. By analogy, a suspension of 50 mg/mL olive leaf extract was prepared by suspending the content of one capsule into 10 mL water. However, for cocoa preparations, 450 mg cocoa extract/ 5 mL, aqueous suspensions of either CocoaVia® capsules or CocoaVia® unsweetened dark chocolate powder were prepared by suspending the content of one capsule or 2 g powder, respectively in water. Separate volumes (0.25 mL) of DAS suspension were orally administered to all treated animals using a gavage needle so that all rats received DAS dose of 25 mg/kg. For the purpose of comparison, rats of group I were only treated with DAS. Rats of groups II and III, curcumin groups, were first separately given an oral dose of […] of either Super Bio-Curcumin, curcumin I (rat group II) or Curcumin 95, curcumin II (rat group III). Then 30 min following curcumin administration, DAS suspension was given to the rats in a dose of 25 mg/kg. Rats of groups IV and V, the olive oil groups, were administered olive oil as follows; rats of group IV were separately given an oral dose of olive leaf extract, olive oil I, 50 mg/kg 30 min prior to DAS administration (25 mg/kg), while rats of groups V were separately given an oral dose of DAS suspended in olive oil, olive oil II (25 mg/kg). Finally, rats of groups VI and VII, cocoa groups, were initially given an oral dose of CocoaVia® capsules, cocoa I, 90 mg/kg (rat group VI), or CocoaVia® unsweetened dark chocolate, cocoa II, 90 mg/kg (rat group VII) 30 min before DAS dosing of 25 mg/kg. For each group, volumes of 0.3 mL blood samples were withdrawn from the retro-orbital sinus of each rat into heparinized tubes. Blood samples were collected at different time intervals; 0 (prior to dosing), 0.5, 1, 2, 3, 5, 6, and 24 h following DAS administration. All collected blood samples were centrifuged immediately at 4,500 rpm (30 min, 4°C).

[3] = Stability of DAS in rat plasma QC samples; assay type: in vitro ADME
Protocol: QC samples spiked at two concentration levels of DAS, low (3 ng/mL) and high (450 ng/mL), were analyzed (n = 6) in order to assess the drug stability in plasma. Stability testing were performed by exposing the QC plasma samples to different conditions, namely auto-sampler stability (extracted samples left in the auto-sampler at 10°C for 56 h before injection), short-term (bench-top) stability (samples left at room temperature (25 °C) for 6 h), and long-term stability (samples left at -30°C for 30 days). Moreover, freeze-thaw stability was assessed as follows, plasma samples were frozen at around -30°C and then thawed at room temperature for three cycles. For each sample, DAS concentrations were related to the nominal concentrations to calculate the % recovery.

[4] = Stability of DAS in rat plasma QC samples; assay type: in vitro ADME; conditions: DAS solutions, 4°C, n = 6, read-out: Mean recovery (%) ±RSD, refrigerator stability
[5] = Stability of DAS solutions; assay type: physicochemical
[6] = male, Wistar, rat, DAS in plasma, n = 5, mean±SD

SMILES: CC(=O)N1CCN(c2ccc(OCC3COC(Cn4ccnc4)(c4ccc(Cl)cc4Cl)O3)cc2)CC1 (stereo not shown) [ketoconazole]
effect of co-administration on the PK of sorafenib [1]: did not cause a significant effect

CL ([2]; DAS, n = 5, mean±SD): 153 ± 66.8 mL/min/kg
Vd ([2]; DAS, n = 5, mean±SD): 238.12 ± 44.22 L/kg
AUC(0-inf) [2, 6]: 2660 ± 596 ng·h/mL
AUC(0-t) [2, 6]: 1640 ± 681 ng·h/mL
Tmax [2, 6]: 0.51 ± 0.08 h
Cmax ([2]; male, Wistar, rat, DAS in plasma, n = 5, mean±SD, nutraceutical given orally 30 min before DAS (olive oil II: DAS suspended in it)): 230 ± 31 ng/mL
MRT last ([2]; male, Wistar, rat, DAS in plasma, n = 5, mean±SD, read-out: MRT0-t): 8.6 ± 0.88 h
MRT inf ([2]; male, Wistar, rat, DAS in plasma, n = 5, mean±SD, read-out: MRT0-∞): 24.4 ± 4.29 h
half-life ([2]; male, Wistar, rat, DAS in plasma, n = 5, mean±SD, read-out: t½ (converted)): 17.9 ± 2.15 h
concentration at 0 h ([2]; male, Wistar, rat, plasma, time 0 h (prior to dosing), read-out: Conc*10 (ng/mL plasma), average DAS plasma concentration): 28.6 ng/mL
concentration at 0.5 h ([2]; male, Wistar, rat, plasma, time 0.5 h, read-out: Conc*10 (ng/mL plasma), average DAS plasma concentration): 236 ng/mL
concentration at 1 h ([2]; male, Wistar, rat, plasma, time 1 h, read-out: Conc*10 (ng/mL plasma), average DAS plasma concentration): 153 ng/mL
concentration at 2 h ([2]; male, Wistar, rat, plasma, time 2 h, read-out: Conc*10 (ng/mL plasma), average DAS plasma concentration): 117 ng/mL
concentration at 3 h ([2]; male, Wistar, rat, plasma, time 3 h, read-out: Conc*10 (ng/mL plasma), average DAS plasma concentration): 99.7 ng/mL
concentration at 5 h ([2]; male, Wistar, rat, plasma, time 5 h, read-out: Conc*10 (ng/mL plasma), average DAS plasma concentration): 79.1 ng/mL
concentration at 6 h ([2]; male, Wistar, rat, plasma, time 6 h, read-out: Conc*10 (ng/mL plasma), average DAS plasma concentration): 69.6 ng/mL
concentration at 24 h ([2]; male, Wistar, rat, plasma, time 24 h, read-out: Conc*10 (ng/mL plasma), average DAS plasma concentration): 39.8 ng/mL
recovery at 56 h, 3 ng/mL ([3]; extracted rat plasma QC samples, 10°C, 56 h, extracted samples, 3 ng/mL in rat plasma, n = 6, read-out: Mean recovery (%) ±RSD, auto-sampler stability): 97.3%
recovery at 56 h, 450 ng/mL ([3]; extracted rat plasma QC samples, 10°C, 56 h, extracted samples, 450 ng/mL in rat plasma, n = 6, read-out: Mean recovery (%) ±RSD, auto-sampler stability): 98.5%
recovery at 6 h, 3 ng/mL ([3]; rat plasma QC samples, 25°C, 6 h, 3 ng/mL in rat plasma, n = 6, read-out: Mean recovery (%) ±RSD, short-term stability): 96.1%
recovery at 6 h, 450 ng/mL ([3]; rat plasma QC samples, 25°C, 6 h, 450 ng/mL in rat plasma, n = 6, read-out: Mean recovery (%) ±RSD, short-term stability): 97.2%
recovery at 3 freeze-thaw cycles, 3 ng/mL ([3]; rat plasma QC samples, -30°C, 3 cycles, 3 ng/mL in rat plasma, n = 6, read-out: Mean recovery (%) ±RSD, freeze-thaw stability): 101%
recovery at 3 freeze-thaw cycles, 450 ng/mL ([3]; rat plasma QC samples, -30°C, 3 cycles, 450 ng/mL in rat plasma, n = 6, read-out: Mean recovery (%) ±RSD, freeze-thaw stability): 99.5%
recovery at 30 days, 3 ng/mL ([3]; rat plasma QC samples, -30°C, 30 days, 3 ng/mL in rat plasma, n = 6, read-out: Mean recovery (%) ±RSD, long-term stability): 97.9%
recovery at 30 days, 450 ng/mL ([3]; rat plasma QC samples, -30°C, 30 days, 450 ng/mL in rat plasma, n = 6, read-out: Mean recovery (%) ±RSD, long-term stability): 97.3%
recovery ([3]; rat, rat plasma QC samples, all handling and storage conditions of Table 6, 3 and 450 ng/mL in plasma, read-out: recovery values in stability studies): ≥ 96.1%
recovery at 3 months, 3 ng/mL ([4]; 3 ng/mL): 99.9%
recovery at 3 months, 450 ng/mL ([4]; 450 ng/mL): 98.1%
stability of DAS solutions ([5]; room temperature for 6 h): stable
stability of DAS solutions ([5]; up to 3 months at the refrigerator (4°C)): stable
SMILES: Cc1nc(Nc2ncc(C(=O)Nc3c(C)cccc3Cl)s2)cc(N2CCN(CCO)CC2)n1 [DAS, Dasatinib]
